According to PubChem BioAssay (NCI):
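Here, GI50 denotes the concentration required for 50% inhibition of growth. At the TGI there is no net growth.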

Key:
Assay in all cases: NCI-60 cell line screen, 384-well format
[1] = system: 786-0 renal
[2] = system: A498 renal
[3] = system: A549 NSCLC
[4] = system: ACHN renal
[5] = system: BT-549 breast
[6] = system: CAKI-1 renal
[7] = system: COLO 205 colon
[8] = system: DU-145 prostate
[9] = system: EKVX NSCLC
[10] = system: HCC-2998 colon
[11] = system: HCT-116 colon
[12] = system: HL-60(TB) leukemia
[13] = system: HOP-92 NSCLC
[14] = system: HS 578T breast
[15] = system: HT29 colon
[16] = system: IGROV1 ovarian
[17] = system: KM12 colon
[18] = system: LOX IMVI melanoma
[19] = system: M14 melanoma
[20] = system: MALME-3M melanoma
[21] = system: MCF7 breast
[22] = system: MDA-MB-435 melanoma
[23] = system: MDA-MB-468 breast
[24] = system: NCI-H226 lung
[25] = system: NCI-H23 lung
[26] = system: NCI-H322M lung
[27] = system: NCI-H460 NSCLC
[28] = system: NCI/ADR-RES ovarian
[29] = system: OVCAR-3 ovarian
[30] = system: OVCAR-4 ovarian
[31] = system: OVCAR-8 ovarian
[32] = system: PC-3 prostate
[33] = system: RPMI-8226 leukemia
[34] = system: RXF 393 renal
[35] = system: SF-268 CNS
[36] = system: SF-539 CNS
[37] = system: SK-MEL-28 melanoma
[38] = system: SK-MEL-5 melanoma
[39] = system: SK-OV-3 ovarian
[40] = system: SN12C renal
[41] = system: SNB-19 CNS
[42] = system: SR leukemia
[43] = system: T-47D breast
[44] = system: TK-10 renal
[45] = system: U251 glioblastoma
[46] = system: UACC-257 melanoma
[47] = system: UACC-62 melanoma

With `O=C1CC[C@H](N2Cc3c(OCc4ccc(CN5CCOCC5)cc4)cccc3C2=O)C(=O)N1` the GI50 [1] was over 100 µM, the TGI [1] was over 100 µM and the GI50 [2] was over 100 µM. The TGI [2] was over 100 µM, the GI50 [3] was over 100 µM and the TGI [3] was over 100 µM. For the same molecule, the GI50 [4] was over 100 µM, the TGI [4] was over 100 µM and the GI50 [5] was over 100 µM. The TGI [5] was over 100 µM, the GI50 [6] was over 100 µM and the TGI [6] was over 100 µM. For the same molecule, the GI50 [7] was over 100 µM, the TGI [7] was over 100 µM and the GI50 [8] was over 100 µM. For the same molecule, the TGI [8] was over 100 µM, the GI50 [9] was over 100 µM and the TGI [9] was over 100 µM. For the same molecule, the GI50 [10] was over 100 µM, the TGI [10] was over 100 µM and the GI50 [11] was over 100 µM. It also gave a TGI [11] of over 100 µM, a GI50 [12] of 43.9 µM and a TGI [12] of over 100 µM. It also gave a GI50 [13] of over 100 µM, a TGI [13] of over 100 µM and a GI50 [14] of over 100 µM. The TGI [14] was over 100 µM, the GI50 [15] was over 100 µM and the TGI [15] was over 100 µM. The GI50 [16] was over 100 µM, the TGI [16] was over 100 µM and the GI50 [17] was over 100 µM. It also gave a TGI [17] of over 100 µM, a GI50 [18] of over 100 µM and a TGI [18] of over 100 µM. For the same molecule, the GI50 [19] was over 100 µM, the TGI [19] was over 100 µM and the GI50 [20] was over 100 µM. For the same molecule, the TGI [20] was over 100 µM, the GI50 [21] was over 100 µM and the TGI [21] was over 100 µM. The GI50 [22] was over 100 µM, the TGI [22] was over 100 µM and the GI50 [23] was over 100 µM. It also gave a TGI [23] of over 100 µM, a GI50 [24] of over 100 µM and a TGI [24] of over 100 µM. The GI50 [25] was over 100 µM, the TGI [25] was over 100 µM and the GI50 [26] was over 100 µM. It also gave a TGI [26] of over 100 µM, a GI50 [27] of over 100 µM and a TGI [27] of over 100 µM. For the same molecule, the GI50 [28] was over 100 µM, the TGI [28] was over 100 µM and the GI50 [29] was over 100 µM. The TGI [29] was over 100 µM, the GI50 [30] was over 100 µM and the TGI [30] was over 100 µM. It also gave a GI50 [31] of over 100 µM, a TGI [31] of over 100 µM and a GI50 [32] of over 100 µM. It also gave a TGI [32] of over 100 µM, a GI50 [33] of 11.9 µM and a TGI [33] of over 100 µM. For the same molecule, the GI50 [34] was over 100 µM, the TGI [34] was over 100 µM and the GI50 [35] was over 100 µM. For the same molecule, the TGI [35] was over 100 µM, the GI50 [36] was over 100 µM and the TGI [36] was over 100 µM. The GI50 [37] was over 100 µM, the TGI [37] was over 100 µM and the GI50 [38] was over 100 µM. The TGI [38] was over 100 µM, the GI50 [39] was over 100 µM and the TGI [39] was over 100 µM. It also gave a GI50 [40] of over 100 µM, a TGI [40] of over 100 µM and a GI50 [41] of over 100 µM. It also gave a TGI [41] of over 100 µM, a GI50 [42] of over 100 µM and a TGI [42] of over 100 µM. The GI50 [43] was over 100 µM, the TGI [43] was over 100 µM and the GI50 [44] was over 100 µM. It also gave a TGI [44] of over 100 µM, a GI50 [45] of over 100 µM and a TGI [45] of over 100 µM. It also gave a GI50 [46] of over 100 µM, a TGI [46] of over 100 µM and a GI50 [47] of over 100 µM. It also gave a TGI [47] of over 100 µM.
